Molecules are shown by their SMILES.

The test system of one series is Sagittaria pygmaea, L. Description: Preemergence weed control under flooded paddy conditions, SAGPY (Arrowhead (Pygmaea)). For herbicidal effect rating, SAGPY: meaning of each grade not given here. Conditions: flooded paddy; for SAGPY: herbicidal effect rating 0-9, three to four weeks after treatment; for herbicidal effect rating, SAGPY / SAGPY herbicidal rating: rated three to four weeks after treatment. It is filed as in vivo.
For series [1], the system named is Cyperus serotinus, Rottb. Description: Preemergence weed control under flooded paddy conditions, CYPSE (Flatsedge). For herbicidal effect rating, CYPSE: meaning of each grade not given here. The series is classed as in vivo. To be noted: for CYPSE: herbicidal effect rating 0-9, three to four weeks after treatment; for herbicidal effect rating, CYPSE / CYPSE herbicidal rating: rated three to four weeks after treatment.
For the next series, the system named is Cyperus iria. Description: Preemergence weed control under flooded paddy conditions, CYPIR (Rice Flatsedge). For herbicidal effect rating, CYPIR: meaning of each grade not given here. It is filed as in vivo. To be noted: flooded paddy; for CYPIR: herbicidal effect rating 0-9, three to four weeks after treatment; for herbicidal effect rating, CYPIR / CYPIR herbicidal rating: rated three to four weeks after treatment.
The test system of series [2] is Echinochloa oryzoides (Ard.) Fritsch. Description: Preemergence weed control under flooded paddy conditions, ECHORC (Watergrass (Calif.)). For herbicidal effect rating, ECHORC: meaning of each grade not given here. It is filed as in vivo. To be noted: flooded paddy; for ECHORC: herbicidal effect rating 0-9, three to four weeks after treatment; for herbicidal effect rating, ECHORC / ECHORC herbicidal rating: rated three to four weeks after treatment.

Series [3] concerns Monochoria vaginalis, Presl. Description: Preemergence weed control under flooded paddy conditions, MOOVA (Monochoria). For herbicidal effect rating, MOOVA: meaning of each grade not given here. It is filed as in vivo. Conditions: flooded paddy; for MOOVA: herbicidal effect rating 0-9, three to four weeks after treatment; for herbicidal effect rating, MOOVA / MOOVA herbicidal rating: rated three to four weeks after treatment.
Series [4] deals with Oryza sativa, (L.) Tebonnet. Description: Rice tolerance to post-transplant applications under flooded paddy conditions (Example 187), ORYSAT (Rice, Tebonnet). To be noted: for ORYSAT: herbicidal effect rating 0-9, three to four weeks after treatment; for herbicidal effect rating ORYSAT / ORYSAT herbicidal rating (rice tolerance): rated three to four weeks after treatment.
The mark [5] stands for this setting: 0.0320 kg/ha, preemergence weeds.
[6] abbreviates: 0.0620 kg/ha, preemergence weeds.
Where [7] appears, read: 0.1250 kg/ha, preemergence weeds.
Setting [8] is: 0.2500 kg/ha, preemergence weeds.
The mark [9] stands for this setting: Rate 0.0320 kg/ha, preemergence.
Setting [10] is: Rate 0.0620 kg/ha, preemergence.
Where [11] appears, read: Rate 0.1250 kg/ha, preemergence.
The mark [12] stands for this setting: Rate 0.2500 kg/ha, preemergence.
[13] abbreviates: Rate 0.0320 kg/ha, preemergence weeds.
Setting [14] is: Rate 0.0620 kg/ha, preemergence weeds.
Where [15] appears, read: Rate 0.1250 kg/ha, preemergence weeds.
[16] abbreviates: Rate 0.2500 kg/ha, preemergence weeds.

On to `Cn1c(C(F)(F)F)cc(=O)n(-c2ccc3snc(C(=O)NS(=O)(=O)Cc4ccc(OC(F)(F)F)cc4)c3c2)c1=O` [Example 406, 1,2-Benzisothiazole-3-carboxamide, 5-[3,6-dihydro-3-methyl-2,6-dioxo-4-(trifluoromethyl)-1(2H)-pyrimidinyl]-N-{[p-(trifluoromethoxy)-benzyl]sulfonyl}-], for which the SAGPY is listed as 3.0 in the series on Sagittaria pygmaea, L. (setting [5]); 4.0 in the series on Sagittaria pygmaea, L. (setting [6]); 4.0 in the series on Sagittaria pygmaea, L. (setting [7]); 4.0 in the series with Sagittaria pygmaea, L. (setting [8]). In addition, the CYPSE in series [1] (setting [5]) worked out at 0.0; in series [1] (setting [6]) it was 0.0; in series [1] (setting [7]), 3.0; in series [1] (setting [8]), 6.0. Besides, the CYPIR in the series on Cyperus iria (setting [5]) is recorded as 0.0; in the series with Cyperus iria (setting [6]), 4.0; with Cyperus iria (setting [7]), 4.0; with Cyperus iria (setting [8]), 7.0. Further, the ECHORC was 6.0 in series [2] (setting [5]), 6.0 in series [2] (setting [6]), 7.0 in series [2] (setting [7]) and 7.0 in series [2] (setting [8]). The MOOVA in series [3] (setting [5]) came to 4.0; in series [3] (setting [6]), 7.0; in series [3] (setting [7]), 9.0; in series [3] (setting [8]), 9.0. Moreover, the ORYSAT in series [4] (0.0320 kg/ha) is 0.0; in series [4] (0.0620 kg/ha), 0.0; in series [4] (0.1250 kg/ha), 2.0; in series [4] (0.2500 kg/ha) it was 4.0.
`Cc1ccc(C=C(C#N)c2nsc3ccc(-n4c(=O)cc(C(F)(F)F)n(C)c4=O)cc23)cc1` [Example 597, 1,2-Benzisothiazole-3-acetonitrile, 5-[3,6-dihydro-3-methyl-2,6-dioxo-4-(trifluoromethyl)-1(2H)-pyrimidinyl]-alpha-(p-methylbenzylidene)-]: the “herbicidal effect rating, SAGPY” value in the series with Sagittaria pygmaea, L. (setting [9]) was 0.0; with Sagittaria pygmaea, L. (setting [10]), 0.0; in the series with Sagittaria pygmaea, L. (setting [11]), 0.0; in the series on Sagittaria pygmaea, L. (setting [12]) it was 0.0. For the same compound, the “herbicidal effect rating, CYPSE” value in series [1] (setting [9]), in series [1] (setting [10]), in series [1] (setting [11]) and in series [1] (setting [12]) was 0.0 throughout. Further, the “herbicidal effect rating, CYPIR” value in the series on Cyperus iria (setting [9]), with Cyperus iria (setting [10]), in the series with Cyperus iria (setting [11]) and in the series with Cyperus iria (setting [12]) was 0.0 throughout. The “herbicidal effect rating, ECHORC” value in series [2] (setting [9]) amounted to 4.0; in series [2] (setting [10]), 6.0; in series [2] (setting [11]) it was 7.0; in series [2] (setting [12]), 9.0. In addition, the “herbicidal effect rating, MOOVA” value in series [3] (setting [10]) and in series [3] (setting [12]) was 4.0 each time. Also, the “herbicidal effect rating ORYSAT” value in series [4] (Rate 0.0320 kg/ha), in series [4] (Rate 0.0620 kg/ha), in series [4] (Rate 0.1250 kg/ha) and in series [4] (Rate 0.2500 kg/ha) was 0.0 throughout.
For the compound `Cc1ccc(OC(C)(C)C(=O)OC(C)(C)C)c(-c2nsc3ccc(-n4c(=O)cc(C(F)(F)F)n(C)c4=O)cc23)c1` [Example 514, Propionic acid, 2-{{2-{5-[3,6-dihydro-3-methyl-2,6-dioxo-4-(trifluoromethyl)-1(2H)-pyrimidinyl]-1,2-benzisothiazol-3-yl}-p-tolyl}oxy}-2-methyl-, tert-butyl ester], the SAGPY herbicidal rating stood at 0.0 in the series with Sagittaria pygmaea, L. (0.0320 kg/ha, preemergence); 0.0 in the series with Sagittaria pygmaea, L. (0.0620 kg/ha, preemergence); 0.0 with Sagittaria pygmaea, L. (0.1250 kg/ha, preemergence); 0.0 in the series with Sagittaria pygmaea, L. (0.2500 kg/ha, preemergence). The CYPSE herbicidal rating came out at 0.0 in series [1] (0.0320 kg/ha, preemergence); 0.0 in series [1] (0.0620 kg/ha, preemergence); 0.0 in series [1] (0.1250 kg/ha, preemergence); 0.0 in series [1] (0.2500 kg/ha, preemergence). The CYPIR herbicidal rating in the series with Cyperus iria (0.0320 kg/ha, preemergence) is recorded as 0.0; in the series with Cyperus iria (0.0620 kg/ha, preemergence), 0.0; in the series with Cyperus iria (0.1250 kg/ha, preemergence), 2.0; in the series on Cyperus iria (0.2500 kg/ha, preemergence) it was 7.0. The ECHORC herbicidal rating in series [2] (0.0320 kg/ha, preemergence) turned out to be 0.0; in series [2] (0.0620 kg/ha, preemergence), 1.0; in series [2] (0.1250 kg/ha, preemergence), 2.0; in series [2] (0.2500 kg/ha, preemergence), 8.0. Moreover, the MOOVA herbicidal rating was determined as 9.0 in series [3] (0.0320 kg/ha, preemergence); 9.0 in series [3] (0.0620 kg/ha, preemergence); 9.0 in series [3] (0.1250 kg/ha, preemergence); 9.0 in series [3] (0.2500 kg/ha, preemergence). Also, the “ORYSAT herbicidal rating (rice tolerance)” value is listed as 2.0 in series [4] (0.0320 kg/ha), 2.0 in series [4] (0.0620 kg/ha), 1.0 in series [4] (0.1250 kg/ha) and 4.0 in series [4] (0.2500 kg/ha).
As to `CN(c1ccc(-c2nsc3ccc(-n4c(=O)cc(C(F)(F)F)n(C)c4=O)cc23)cc1)S(C)(=O)=O` [Example 430, Methanesulfonanilide, 4'-{5-[3,6-dihydro-3-methyl-2,6-dioxo-4-(trifluoromethyl)-1(2H)-pyrimidinyl]-1,2-benzisothiazol-3-yl}-N-methyl-], the SAGPY was found to be 6.0 with Sagittaria pygmaea, L. (setting [7]) and 7.0 in the series with Sagittaria pygmaea, L. (setting [8]). For the same compound, the CYPSE came to 0.0 in series [1] (setting [5]), 0.0 in series [1] (setting [6]), 2.0 in series [1] (setting [7]) and 7.0 in series [1] (setting [8]). The CYPIR with Cyperus iria (setting [5]) amounted to 2.0; in the series with Cyperus iria (setting [6]), 6.0; with Cyperus iria (setting [7]), 7.0; with Cyperus iria (setting [8]), 6.0. Moreover, the ECHORC came out at 5.0 in series [2] (setting [5]), 5.0 in series [2] (setting [6]), 7.0 in series [2] (setting [7]) and 9.0 in series [2] (setting [8]). Also, the MOOVA in series [3] (setting [5]), in series [3] (setting [6]), in series [3] (setting [7]) and in series [3] (setting [8]) was 9.0 in each case. Also, the ORYSAT is 3.0 in series [4] (0.0320 kg/ha), 2.0 in series [4] (0.0620 kg/ha), 4.0 in series [4] (0.1250 kg/ha) and 3.0 in series [4] (0.2500 kg/ha).
Turning to `Cn1c(C(F)(F)F)cc(=O)n(-c2ccc3snc(C(=O)Oc4ccccc4)c3c2)c1=O` [Example 319, 1,2-Benzisothiazole-3-carboxylic acid, 5-[3,6-dihydro-3-methyl-2,6-dioxo-4-(trifluoromethyl)-1(2H)-pyrimidinyl]-, phenyl ester], the “herbicidal effect rating, SAGPY” value in the series with Sagittaria pygmaea, L. (setting [13]) came out at 6.0; in the series on Sagittaria pygmaea, L. (setting [14]) it was 6.0; in the series on Sagittaria pygmaea, L. (setting [15]), 9.0; with Sagittaria pygmaea, L. (setting [16]), 9.0. For the same compound, the “herbicidal effect rating, CYPSE” value in series [1] (setting [13]) is recorded as 4.0; in series [1] (setting [14]), 6.0; in series [1] (setting [15]) it was 6.0; in series [1] (setting [16]), 6.0. Moreover, the “herbicidal effect rating, CYPIR” value stood at 3.0 with Cyperus iria (setting [13]), 9.0 with Cyperus iria (setting [14]), 9.0 in the series on Cyperus iria (setting [15]) and 9.0 in the series on Cyperus iria (setting [16]). For the same compound, the “herbicidal effect rating, ECHORC” value is on record as 3.0 in series [2] (setting [13]), 7.0 in series [2] (setting [14]), 9.0 in series [2] (setting [15]) and 9.0 in series [2] (setting [16]). Also, the “herbicidal effect rating, MOOVA” value in series [3] (setting [13]), in series [3] (setting [14]), in series [3] (setting [15]) and in series [3] (setting [16]) was 9.0 each time. Besides, the “herbicidal effect rating ORYSAT” value in series [4] (Rate 0.0320 kg/ha) turned out to be 5.0; in series [4] (Rate 0.0620 kg/ha), 6.0; in series [4] (Rate 0.1250 kg/ha), 6.0; in series [4] (Rate 0.2500 kg/ha) it was 7.0.

The values are drawn from patent publication EP0908457B1, “3-(1,2-benzisothiazol- and isoxazol-5-Y1)-2,4(1H,3H)-pyrimidinedione or thione and 3-(1,2-benzisothiazol- and isoxazol-5-y1)-4(3H)-pyrimidinone or thione herbicidal agents” (BASF AKTIENGESELLSCHAFT, priority 1997, dated 1999).
